Measured values reported in patent US20120022121A1, “INDOLES, DERIVATIVES AND ANALOGS THEREOF AND USES THEREFOR” (priority 2007, published 2012).

How the values were obtained:
CV-1 = test: Cell viability SRB assay, 96 h; assay type: cell-based; details: Cercopithecidae, CV-1 fibroblast cell line
Method: (§1) Cells were plated in 96-well plates at a density of 800-5,000 cells/well, depending on the cell line, in their required growth media containing 10% fetal bovine serum. Preliminary studies were performed with each cell line using a variety of cell densities and incubation times to determine appropriate seeding densities. The compound of interest was dissolved in DMSO, diluted in cell culture medium (final DMSO concentration was less than 0.5% v/v), and added to quadruplicate wells at final concentrations ranging from 0 to 100 μM. Control wells to which only drug-free vehicle was added were included as negative controls.
(§2) Cells were incubated for 96 hour at 37° C. in a humidified atmosphere containing 5% carbon dioxide.

DU-145 = test: Cell viability SRB assay, 96 h; assay type: cell-based; details: Homo sapiens, DU-145, 96 h
Method: (§3) Cell viability (LNCaP, PC-3 prostate, DU145, PPC-1, and TSU-Pr1 prostate cancer cell lines, HT-29 colon cancer cell line, and MCF-7 breast cancer cell line) was quantitated using the sulforhodamine B (SRB) assay after 96 h coincubation with different concentrations of compound in 96-well plates. Cell viability of leukemia cells (K562 and doxorubicin-resistant K562/Dox) was quantitated by MTT assay after 96 h coincubation with different concentrations of compound in 96-well plates. Drug-induced apoptosis was determined by anti-histone ELISA assay and DNA laddering. Cell cycle progression was assessed by propidium iodide staining and fluorescence-activated cell sorting (FACS) analysis. In vitro tubulin polymerization assay was determined by CytoDYNAMIX ScreenTM3 (CDS-03) kits according to the manufacturer's instructions. Anti-apoptosis protein (Bcl-2 and Bcl-xl) and pro-apoptosis protein (Bax) were examined in LNCaP and PC-3 after 24 h incubation with different concentrations of compound 13 by Western blot assay. In vivo PC-3 xenograft studies were conducted by i.v. dosing of 50 mg/kg, 100 mg/kg and 150 mg/kg for 2 weeks.
as §1, §2
(§4) Cells were stained with SRB solution. […] WinNonlin was provided by a Pharsight Academic License to The Ohio State University.

LNCaP [1] = test: Cell viability SRB assay, 96 h; assay type: cell-based; details: Homo sapiens
Method: as §3, §1, §2, §4

PC-3 [2] = test: Cell viability SRB assay, 96 h; assay type: cell-based; details: Homo sapiens, PC-3, 96 h
Method: as §3, §1, §2, §4

PPC-1 [3] = test: Cell viability SRB assay, 96 h; assay type: cell-based; details: Homo sapiens, PPC-1, 96 h
Method: as §3, §1, §2, §4

TSU = test: Cell viability SRB assay, 96 h; assay type: cell-based; details: Homo sapiens, TSU (TSU-Pr1)
Method: as §3, §1, §2, §4

A375 = test: Cytotoxicity assay (SRB, 48 h); assay type: cell-based, human
WM164 = test: Cytotoxicity assay (SRB, 48 h); assay type: cell-based, human; details: WM164 melanoma
LNCaP [4] = test: Cytotoxicity assay (SRB, 96 h); assay type: cell-based; details: Homo sapiens
PC-3 [5] = test: Cytotoxicity assay (SRB, 96 h); assay type: cell-based; details: Homo sapiens, PC-3, 96 h
Du 145 = test: Cytotoxicity assay (SRB, 96 h); assay type: cell-based; details: Homo sapiens; Du 145, 96 h
PPC-1 [6] = test: Cytotoxicity assay (SRB, 96 h); assay type: cell-based; details: Homo sapiens, PPC-1, 96 h
[7] = test system: melanoma and prostate cancer cell lines; test: Cytotoxicity assay (SRB), summary over the cell lines of Table 3; assay type: cell-based; details: Homo sapiens
[8] = Homo sapiens, A-375, 48 h, A375 melanoma
[9] = Homo sapiens, A-375, A375 melanoma

Structure (SMILES) | IC50 (DU-145) [µM] | IC50 (LNCaP [1]) [µM] | IC50 (PC-3 [2]) [µM] | melting point [°C] | IC50 (CV-1) [µM] | IC50 (PPC-1 [3]) [µM] | IC50 (TSU) [µM] | IC50 (A375; [8]) [µM] | IC50 (WM164; Homo sapiens, WM164, 48 h) [µM] | IC50 (LNCaP [4]) [µM] | IC50 (PC-3 [5]) [µM] | IC50 (Du 145) [µM] | IC50 (PPC-1 [6]) [µM] | IC50 [7] [µM] | IC50 (A375; [9]) [µM] | IC50 (WM164; Homo sapiens) [µM] | IC50 (A375; A375 melanoma) [µM] | IC50 (WM164) [µM]
O=S(=O)(c1ccccc1)n1c(Br)cc2ccccc21 [Compound 3, 2-bromo-1-(benzenesulfonyl)indole] | 63.9 ± 1.9 | 29.6 ± 2.2 | 69.3 ± 2.1 |  | > 100 | 52.1 ± 1.1 | 44.9 ± 2 |  |  |  |  |  |  |  |  |  |  | 
O=Cc1cccc(-c2cc3ccccc3n2S(=O)(=O)c2ccccc2)c1 [Compound 5] | 19.7 ± 1.3 | 17.7 ± 1.2 | 23.2 ± 1.4 | 126 to 138 | > 100 | 13.9 ± 0.2 | 11.5 ± 0.1 |  |  |  |  |  |  |  |  |  |  | 
O=S(=O)(c1ccccc1)n1c(B(O)O)cc2ccccc21 [Compound 7, 1-(phenylsulfonyl)-1H-indol-2-yl-boronic acid, reference compound] | 72 ± 3.4 | 23.1 ± 4 | 73.9 ± 7.1 |  | > 100 | 80.8 ± 1.2 | 48.2 ± 3.4 |  |  |  |  |  |  |  |  |  |  | 
COc1cc(C(=O)c2cc3ccc(Cl)cc3[nH]2)cc(OC)c1OC [Compound 112, (6-Chloro-1H-indol-2-yl)(3,4,5-trimethoxyphenyl)methanone] |  |  |  | 207 to 209 |  |  |  | > 10 | > 10 | > 10 | > 10 | > 10 | > 10 | > 10 |  |  |  | 
COc1cc(C(=O)c2cc3ccc(F)cc3[nH]2)cc(OC)c1OC [Compound 113, (6-Fluoro-1H-indol-2-yl)(3,4,5-trimethoxyphenyl)methanone] |  |  |  |  |  |  |  | > 10 | > 10 | > 10 | > 10 | > 10 | > 10 | > 10 |  |  |  | 
COc1ccc2cc(C(=O)c3cc(OC)c(OC)c(OC)c3)[nH]c2c1 [Compound 114, (6-Methoxy-1H-indol-2-yl)(3,4,5-trimethoxyphenyl)methanone] |  |  |  | 167 to 169 |  |  |  |  |  | > 10 | > 10 | > 10 | > 10 | > 10 | > 10 | > 10 |  | 
COc1cc(C(=O)c2cc3cc(Cl)ccc3[nH]2)cc(OC)c1OC [Compound 115, (5-Chloro-1H-indol-2-yl)(3,4,5-trimethoxyphenyl)methanone] |  |  |  | 252 to 254 |  |  |  |  |  | > 10 | > 10 | > 10 | > 10 | 1 to 10 |  |  | 1.47 | 2.16
COc1cc(C(=O)c2cc3cc(F)ccc3[nH]2)cc(OC)c1OC [Compound 117, (5-Fluoro-1H-indol-2-yl)(3,4,5-trimethoxyphenyl)methanone] |  |  |  | 196 to 198 |  |  |  | 2.21 | 2.26 | 8.63 | 9.16 | 3.42 | 1 |  |  |  |  | 
COc1cc(C(=O)c2cc3ccc(Cl)cc3n2Cc2ccccc2)cc(OC)c1OC [Compound 120, (1-Benzyl-6-chloro-1H-indol-2-yl)(3,4,5-trimethoxyphenyl)methanone] |  |  |  |  |  |  |  | > 10 | > 10 | > 10 | > 10 | > 10 | > 10 | > 10 |  |  |  | 
COc1cc(C(=O)c2cc3ccc(F)cc3n2C)cc(OC)c1OC [Compound 121, (6-Fluoro-1-methyl-1H-indol-2-yl)(3,4,5-trimethoxyphenyl)methanone] |  |  |  |  |  |  |  |  |  | 1.05 | > 10 | > 10 | 8.3 | 1 to 10 | 5.87 | 7.5 |  | 
COc1ccc2[nH]c(C(=O)c3cc(OC)c(OC)c(OC)c3)cc2c1 [Compound 148, (5-Methoxy-1H-indol-2-yl)(3,4,5-trimethoxyphenyl)methanone] |  |  |  |  |  |  |  |  |  | 0.05 | 0.04 | 0.08 | 0.05 | 0.05 | 0.03 | 0.04 |  | 

Continued, in another order:

IC50 (DU-145) [µM] | IC50 (LNCaP [1]) [µM] | IC50 (PC-3 [2]) [µM] | melting point [°C] | Structure (SMILES) | IC50 (CV-1) [µM] | IC50 (PPC-1 [3]) [µM] | IC50 (TSU) [µM] | IC50 (A375; [8]) [µM] | IC50 (WM164; Homo sapiens, WM164, 48 h) [µM] | IC50 (LNCaP [4]) [µM] | IC50 (PC-3 [5]) [µM] | IC50 (Du 145) [µM] | IC50 (PPC-1 [6]) [µM] | IC50 [7] [µM] | IC50 (A375; [9]) [µM] | IC50 (WM164; Homo sapiens) [µM] | IC50 (A375; A375 melanoma) [µM] | IC50 (WM164) [µM]
 |  |  | 191 to 193 | COc1cc(C(=O)c2nc3ccccc3[nH]2)cc(OC)c1OC [Compound 118, (1H-benzo[d]imidazol-2-yl)(3,4,5-trimethoxyphenyl)methanone] |  |  |  | > 10 | > 10 | > 10 | > 10 | > 10 | > 10 | > 10 |  |  |  | 
 |  |  | 144 to 146 | COc1cc(C(=O)c2nc3ccccc3s2)cc(OC)c1OC [Compound 123a, Benzo[d]thiazol-2-yl(3,4,5-trimethoxyphenyl)methanone] |  |  |  | > 10 | > 10 | > 10 | > 10 | > 10 | > 10 | > 10 |  |  |  | 
 |  |  | 89 to 91 | COc1cc(C(=O)c2nc3ccccc3o2)cc(OC)c1OC [Compound 123b, Benzo[d]oxazol-2-yl(3,4,5-trimethoxyphenyl)methanone] |  |  |  | > 10 | > 10 | > 10 | > 10 | > 10 | > 10 | > 10 |  |  |  | 
 |  |  | 50 to 52 | COc1cc(C(O)(c2nc3ccccc3s2)c2nc3ccccc3s2)cc(OC)c1OC [Compound 127, Bis(benzo[d]thiazol-2-yl)(3,4,5-trimethoxyphenyl)methanol] |  |  |  | > 10 | > 10 | > 10 | > 10 | > 10 | > 10 | > 10 |  |  |  | 
39.7 ± 2.6 | 5.8 ± 0.5 | 39.4 ± 1.7 |  | c1ccc2c(Cc3c[nH]c4ccccc34)c[nH]c2c1 [Compound 128, di(1H-indol-3-yl)methane, reference compound] | > 100 | 31.8 ± 1.1 | 45.7 ± 1.1 |  |  |  |  |  |  |  |  |  |  | 
55.1 ± 2.5 | 18.3 ± 1.4 | 59.9 ± 1.8 |  | O=S(=O)(c1ccccc1)n1cc(B(O)O)c2ccccc21 [Compound 129, reference compound] | > 100 | 41.1 ± 1.8 | 39.3 ± 1.6 |  |  |  |  |  |  |  |  |  |  | 
